In patent US6943179B2, “Biurethane derivatives” (Merck Patent GmbH, priority 2001, dated 2005) one finds melting point and IC50 data, which are given here for three molecules.

Structures are written as SMILES.

In one data set the target is FXa (Homo sapiens, UniProt P00742). The experiment in a line: Factor Xa inhibition (FXa-IC50). It is filed as biochemical. From the text:
The inhibition of factor Xa by the compounds according to the invention and the measurement of the anticoagulant and antithrombotic activity can be determined by conventional in-vitro or in-vivo methods. A suitable method is described, for example, by J. Hauptmann et al. in Thrombosis and Haemostasis 1990, 63, 220-223.
The inhibition of factor Xa can be measured, for example, by the method of T. Hara et al. in Thromb. Haemostas. 1994, 71, 314-319.

A further data set concerns the target T1, TF/FVIIa (Homo sapiens, UniProt P08709).
T1 construct: Coagulation factor VIIa initiates the extrinsic part of the coagulation cascade
The data set can be described thus: TF/FVIIa inhibition (TF/FVIIa-IC50). It is filed as biochemical. The source says:
The inhibition of factor VIIa by the compounds according to the invention and the measurement of the anticoagulant and antithrombotic activity can be determined by conventional in-vitro or in-vivo methods. A conventional method for the measurement of the inhibition of factor VIIa is described, for example, by H. F. Ronning et al. in Thrombosis Research 1996, 84, 73-81.

Sequence of FXa (P00742 235-488 limits assumed): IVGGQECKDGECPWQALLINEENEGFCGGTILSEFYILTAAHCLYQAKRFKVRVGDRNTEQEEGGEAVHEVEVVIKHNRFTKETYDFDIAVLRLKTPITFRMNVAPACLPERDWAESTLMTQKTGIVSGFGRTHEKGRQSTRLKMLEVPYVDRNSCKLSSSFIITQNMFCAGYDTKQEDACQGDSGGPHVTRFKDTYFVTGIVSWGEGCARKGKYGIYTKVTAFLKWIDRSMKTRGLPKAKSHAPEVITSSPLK
Sequence of FXa (P00742 41-179 limits assumed): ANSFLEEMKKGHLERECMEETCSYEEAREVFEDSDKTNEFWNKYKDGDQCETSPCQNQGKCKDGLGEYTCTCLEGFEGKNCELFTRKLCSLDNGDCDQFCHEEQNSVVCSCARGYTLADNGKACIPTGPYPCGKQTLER
T1 sequence (P08709 213-466 limits assumed): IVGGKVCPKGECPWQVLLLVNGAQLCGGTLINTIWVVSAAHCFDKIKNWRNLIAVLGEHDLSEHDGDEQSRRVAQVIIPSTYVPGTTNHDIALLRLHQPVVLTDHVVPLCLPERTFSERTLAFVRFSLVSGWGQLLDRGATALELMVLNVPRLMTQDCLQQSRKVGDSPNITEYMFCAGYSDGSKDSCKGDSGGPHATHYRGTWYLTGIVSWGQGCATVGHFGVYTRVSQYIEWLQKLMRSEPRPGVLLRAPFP
T1 sequence (P08709 61-212 limits assumed): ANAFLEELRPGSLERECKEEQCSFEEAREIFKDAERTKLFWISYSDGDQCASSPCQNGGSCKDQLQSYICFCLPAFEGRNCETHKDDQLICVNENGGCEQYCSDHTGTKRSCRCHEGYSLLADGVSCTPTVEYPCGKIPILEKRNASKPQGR
T1 sequence (P13726 33-295 partner): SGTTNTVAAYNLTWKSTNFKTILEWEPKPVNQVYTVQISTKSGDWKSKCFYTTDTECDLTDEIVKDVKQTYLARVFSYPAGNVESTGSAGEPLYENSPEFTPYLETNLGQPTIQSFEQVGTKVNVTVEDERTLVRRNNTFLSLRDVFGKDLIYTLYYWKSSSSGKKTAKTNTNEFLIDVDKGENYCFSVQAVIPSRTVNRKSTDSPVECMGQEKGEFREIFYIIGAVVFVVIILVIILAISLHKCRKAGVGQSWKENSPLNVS

As for `O=C(Nc1ccc(Cl)cc1)NN(C(=O)Nc1ccc(N2CCCCC2=O)cc1)c1ccc(Cl)cc1` [compound 2], the melting point (as a rule, the temperature of the solid-liquid transition) was 170 to 175 °C. For the same molecule, the IC50 (usually the midpoint of a concentration-inhibition curve) at FXa was found to be 670 nM. Further, the IC50 on TF/FVIIa was 340 nM.

As for `O=C(Nc1ccc(Cl)cc1)NN(C(=O)Nc1ccc(N2CCCCC2=O)cc1)c1ccccc1` [No. 1, N-(4-Chlorophenylaminocarbonyl)-N′-[4-(2-oxo-1-piperidyl)phenylaminocarbonyl]-N′-phenylhydrazine], the melting point is 165 to 170 °C (dec.). The same molecule came in with an IC50 against FXa of 180 nM. At TF/FVIIa, this molecule had an IC50 of 91 nM.

Take `CS(=O)(=O)c1ccccc1-c1ccc(NC(=O)N(NC(=O)Nc2ccc(Cl)cc2)c2ccccc2)cc1` [compound 3]: the melting point was greater than 250 °C. On FXa, 390 nM corresponded to half-maximal inhibition (IC50). The molecule also displayed an IC50 at TF/FVIIa of 190 nM.
